Results: patent US20200138824A1, “TREATMENT OF CANCER WITH A PI3K INHIBITOR IN A PATIENT PRESELECTED FOR HAVING A PIK3CA MUTATION IN THE CTDNA” (Novartis AG, priority 2015, published 2020)

Test system: HR+, HER2-negative locally advanced or metastatic breast cancer
Assay: Study CBKM120F2302, randomized double-blind placebo-controlled Phase-III trial: buparlisib plus fulvestrant vs. placebo plus fulvestrant
Type: in vivo, human
Details: Full population
Excerpt: For the Study, patients were selected according to the following inclusions and exclusion criteria:
Inclusion Criteria: • Locally advanced or metastatic breast cancer • HER2-negative and hormone receptor-positive status (common breast cancer classification tests) • Postmenopausal woman • A tumor sample must be shipped to a Novartis designated laboratory for identification of biomarkers (PI3K activation status) • Progression or recurrence of breast cancer while on or after aromatase inhibitor treatment • Measurable disease or non measurable disease bone lesions in the absence of measurable disease as per Response Evaluation Criteria in Solid Tumors 1.1 • Adequate bone marrow and organ function defined by laboratory values
Approximately 1200 patients were to be randomized in a 1:1 ratio. Enrollment was to continue until a minimum of 842 patients were randomized in the main cohort, including ≥334 patients with activated PI3K pathway status. […]
The PI3K pathway activation status was defined based on analysis of archival tumor samples as: • A mutation in the PIK3CA gene in one or more of exons 1, 7, 9, or 20 as assessed by Sanger sequencing, and/or • Loss of phosphotensin homolog (PTEN) expression (<10% of tumor cells expressing PTEN at 1+ level by immunohistochemistry [IHC] and no tumor cells staining with an intensity >1+) […]

Nc1cc(C(F)(F)F)c(-c2cc(N3CCOCC3)nc(N3CCOCC3)n2)cn1 [buparlisib, 5-(2,6-di-morpholin-4-yl-pyrimidin-4-yl)-4-trifluoromethyl-pyridin-2-ylamine]
Overall safety and tolerability profile: consistent with prior experience in single-arm and combination studies and with the class effects of PI3K inhibitors
